# pIC50: −log10 of the molar value.
# Biological target: T1, PARP7 (Homo sapiens, UniProt Q7Z3E1)
# T1 sequence (Q7Z3E1 1-657): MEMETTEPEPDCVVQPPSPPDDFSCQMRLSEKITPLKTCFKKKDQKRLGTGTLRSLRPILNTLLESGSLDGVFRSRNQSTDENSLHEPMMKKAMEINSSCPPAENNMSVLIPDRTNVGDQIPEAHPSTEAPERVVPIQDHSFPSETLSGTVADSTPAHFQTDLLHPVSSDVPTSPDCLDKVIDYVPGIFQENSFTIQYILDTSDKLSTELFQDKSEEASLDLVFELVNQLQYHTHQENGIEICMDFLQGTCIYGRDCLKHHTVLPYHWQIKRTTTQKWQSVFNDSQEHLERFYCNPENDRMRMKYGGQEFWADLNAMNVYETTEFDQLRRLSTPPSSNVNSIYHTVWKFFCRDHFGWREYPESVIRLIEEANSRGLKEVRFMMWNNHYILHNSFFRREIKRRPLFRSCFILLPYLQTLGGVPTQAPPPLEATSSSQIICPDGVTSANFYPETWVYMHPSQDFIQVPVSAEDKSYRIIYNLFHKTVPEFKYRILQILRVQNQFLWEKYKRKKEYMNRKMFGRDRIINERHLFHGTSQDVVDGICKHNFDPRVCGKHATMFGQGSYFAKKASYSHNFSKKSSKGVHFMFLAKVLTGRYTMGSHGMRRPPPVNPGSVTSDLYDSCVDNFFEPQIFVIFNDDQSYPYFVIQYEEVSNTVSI
# Assay: PARP7 TR-FRET assay (binding, displacement of biotinylated Probe A)
# Conditions: 6 nM PARP7, 2 nM Probe A, 25° C., 30 min
# Description: Biological Assay Example A: PARP7 TR-FRET Assay
# A time-resolved fluorescence energy transfer (TR-FRET) assay was used to test binding activity of compounds to PARP7. Two microliter test compound was added in 384-well plate. Reactions were performed in a 6 uL volume by adding 4 uL mixture of PARP7 and Probe A (a biotinylated probe binding to the PARP7: N-(6-(2-(4-((2-(6-oxo-5-(trifluoromethyl)-1,6-dihydropyridazin-4-yl) isoindolin-5-yl) oxy) piperidin-1-yl) acetamido) hexyl)-5-((3aS,4S,6aR)-2-oxohexahydro-1H-thieno [3,4-d]imidazol-4-yl) pentanamide, made as reported in WO2019212937A1) in assay buffer (20 mM HEPES pH 8.0, 100 mM NaCl, 0.1% BSA, 2 mM DTT and 0.002% Tween20). The final concentration of PARP7 and Probe A were 6 nM and 2 nM, incubating with test compounds at 25° C. for 30 min. Four microliter ULight-anti 6xHis and LANCE Eu-W1024 labeled streptavidin (PerkinElmer) were added with the final concentration of ULight-anti 6xHis and LANCE Eu-W1024 at 4 nM and 0.25 nM. The reaction mixture was incubated at 25° C. for 30 min. The plate was read on a Tecan Spark plate reader (excitation wavelength at 320 nm, emission wavelength at 615 nm and 665 nm with a 90 us delay. The ratio of the 665/615 nm emission was calculated for each well to the amount of complex of PARP7 and Probe A in each well was calculated. The 0.25% DMSO vehicle was used as control and no PARP7 well was as blank well. Inhibition rate is calculated with the formula of % inhibition=100-100*(TRFcmpd-TRFblank)/(TRFcontrol−TRFblank). Inhibition IC50 is calculated with the equation of Y=Bottom+ (Top-Bottom)/(1+10^((LogIC50−X) *Hill Slope))
row,SMILES,pIC50
1,"O=C(COC1CCOc2c1n[nH]c(=O)c2C1CC1)N1CCN(c2ncc(C(F)(F)F)cn2)CC1 (single isomer, unassigned) [Compound 129]",< 6.00
2,"O=C(CC1CN(c2cc(C(F)(F)F)c(=O)[nH]n2)c2cc(F)ccc2O1)N1CCN(c2ncc(C(F)(F)F)cn2)CC1 (single isomer, unassigned) [Compound 130]",> 7.00
3,"O=C(CC1CN(c2cc(C(F)(F)F)c(=O)[nH]n2)c2cc(F)ccc2O1)N1CCN(c2ncc(C(F)(F)F)cn2)CC1 (single isomer, unassigned) [Compound 131]",6.00 to 7.00
4,"O=C(CC1CN(c2cc(C(F)(F)F)c(=O)[nH]n2)c2cc(Cl)ccc2O1)N1CCN(c2ncc(C(F)(F)F)cn2)CC1 (single isomer, unassigned) [Compound 132]",> 7.00
5,"O=C(CC1CN(c2cc(C(F)(F)F)c(=O)[nH]n2)c2cc(Cl)ccc2O1)N1CCN(c2ncc(C(F)(F)F)cn2)CC1 (single isomer, unassigned) [Compound 133]",> 7.00
6,"O=C(CC1CN(c2cc(C(F)(F)F)c(=O)[nH]n2)c2cc(C3CC3)ccc2O1)N1CCN(c2ncc(C(F)(F)F)cn2)CC1 (single isomer, unassigned) [Compound 134]",> 7.00
7,"O=C(CC1CN(c2cc(C(F)(F)F)c(=O)[nH]n2)c2cc(C3CC3)ccc2O1)N1CCN(c2ncc(C(F)(F)F)cn2)CC1 (single isomer, unassigned) [Compound 135]",> 7.00
8,"N#CC1(c2ccc3c(c2)N(c2cc(C(F)(F)F)c(=O)[nH]n2)CC(CC(=O)N2CCN(c4ncc(C(F)(F)F)cn4)CC2)O3)CC1 (single isomer, unassigned) [Compound 137]",> 7.00
9,"C[C@@H]1CN(C(=O)CC2CN(c3cc(C(F)(F)F)c(=O)[nH]n3)c3cc(C#N)ccc3O2)CCN1c1ncc(Cl)cn1 (single isomer, unassigned) [Compound 141]",> 7.00
10,"O=C(CC1CN(c2cc(C(F)(F)F)c(=O)[nH]n2)c2cc(Cl)ccc2O1)N1CCN(c2cnc(C(F)(F)F)cn2)CC1 (single isomer, unassigned) [Compound 143]",> 7.00
11,"O=C(CC1CN(c2cc(C(F)(F)F)c(=O)[nH]n2)c2cc(C(F)F)ccc2O1)N1CCN(c2cnc(C(F)(F)F)cn2)CC1 (single isomer, unassigned) [Compound 146]",6.00 to 7.00
12,"CC(C)(O)c1cnc(N2CCN(C(=O)CC3CN(c4cc(C(F)(F)F)c(=O)[nH]n4)c4cc(Cl)ccc4O3)CC2)nc1 (single isomer, unassigned) [Compound 151]",> 7.00
13,"C[C@@H]1CN(C(=O)CC2CN(c3cc(C(F)(F)F)c(=O)[nH]n3)c3cc(C#N)ccc3O2)CCN1c1ncc(C(F)(F)F)cn1 (single isomer, unassigned) [Compound 152]",> 7.00
14,"C[C@@H]1CN(C(=O)CC2CN(c3cc(C(F)(F)F)c(=O)[nH]n3)c3cc(C#N)ccc3O2)CCN1c1cnc(C(F)(F)F)cn1 (single isomer, unassigned) [Compound 153]",> 7.00
15,"N#Cc1ccc2c(c1)N(c1cc(C(F)(F)F)c(=O)[nH]n1)CC(CC(=O)N1CCN(c3ccc(C(F)(F)F)cn3)CC1)O2 (single isomer, unassigned) [Compound 154]",> 7.00
16,"O=C(CC1CN(c2cc(C(F)(F)F)c(=O)[nH]n2)c2ccc(F)cc2O1)N1CCN(c2ncc(C(F)(F)F)cn2)CC1 (single isomer, unassigned) [Compound 157]",> 7.00
17,"O=C(CC1CN(c2cc(C(F)(F)F)c(=O)[nH]n2)c2ccc(F)cc2O1)N1CCN(c2ncc(C(F)(F)F)cn2)CC1 (single isomer, unassigned) [Compound 158]",6.00 to 7.00
18,"O=C(CC1CN(c2cc(C(F)(F)F)c(=O)[nH]n2)c2ccc(Cl)cc2O1)N1CCN(c2ncc(C(F)(F)F)cn2)CC1 (single isomer, unassigned) [Compound 163]",> 7.00
19,"O=C(CC1CN(c2cc(C(F)(F)F)c(=O)[nH]n2)c2ccc(Cl)cc2O1)N1CCN(c2ncc(C(F)(F)F)cn2)CC1 (single isomer, unassigned) [Compound 164]",6.00 to 7.00

row,SMILES,pIC50
1,"Cn1cc(-c2ccc3c(c2)N(c2cc(C(F)(F)F)c(=O)[nH]n2)CC(CC(=O)N2CCN(c4ncc(C(F)(F)F)cn4)CC2)O3)cn1 (single isomer, unassigned) [Compound 192]",> 7.00
2,"Cn1cc(-c2ccc3c(c2)N(c2cc(C(F)(F)F)c(=O)[nH]n2)CC(CC(=O)N2CCN(c4ncc(C(F)(F)F)cn4)CC2)O3)cn1 (single isomer, unassigned) [Compound 193]",> 7.00
3,"C#Cc1ccc2c(=O)[nH]nc(N3CCOC(CC(=O)N4CCN(c5ncc(C(F)(F)F)cn5)CC4)C3)c2c1 (single isomer, unassigned) [Compound 194]",> 7.00
4,"C#Cc1ccc2c(=O)[nH]nc(N3CCOC(CC(=O)N4CCN(c5ncc(C(F)(F)F)cn5)CC4)C3)c2c1 (single isomer, unassigned) [Compound 195]",> 7.00
5,"C#Cc1ccc2c(N3CCOC(CC(=O)N4CCN(c5ncc(C(F)(F)F)cn5)CC4)C3)n[nH]c(=O)c2c1 (single isomer, unassigned) [Compound 196]",6.00 to 7.00
6,"C#Cc1ccc2c(N3CCOC(CC(=O)N4CCN(c5ncc(C(F)(F)F)cn5)CC4)C3)n[nH]c(=O)c2c1 (single isomer, unassigned) [Compound 197]",> 7.00
7,"N#Cc1ccc2c(c1)N(c1cc(C(F)(F)F)c(=O)[nH]n1)CC(CC(=O)N1CCN(c3ncc(C(F)(F)F)cn3)CC1)O2 (single isomer, unassigned) [Compound 200]",> 7.00
8,"N#Cc1ccc2c(c1)N(c1cc(C(F)(F)F)c(=O)[nH]n1)CC(CC(=O)N1CCN(c3ncc(C(F)(F)F)cn3)CC1)O2 (single isomer, unassigned) [Compound 201]",6.00 to 7.00
9,"CS(=O)(=O)c1ccc2c(c1)N(c1cc(C(F)(F)F)c(=O)[nH]n1)CC(CC(=O)N1CCN(c3ncc(C(F)(F)F)cn3)CC1)O2 (single isomer, unassigned) [Compound 205]",> 7.00
10,"CS(=O)(=O)c1ccc2c(c1)N(c1cc(C(F)(F)F)c(=O)[nH]n1)CC(CC(=O)N1CCN(c3ncc(C(F)(F)F)cn3)CC1)O2 (single isomer, unassigned) [Compound 206]",> 7.00
11,"O=C(CC1CN(c2n[nH]c(=O)c3cc(OCC(F)F)ccc23)CCO1)N1CCN(c2ncc(C(F)(F)F)cn2)CC1 (single isomer, unassigned) [Compound 208]",< 6.00
12,"O=C(CC1CN(c2n[nH]c(=O)c3cc(OCC(F)F)ccc23)CCO1)N1CCN(c2ncc(C(F)(F)F)cn2)CC1 (single isomer, unassigned) [Compound 209]",< 6.00
13,"O=C(CC1CN(c2n[nH]c(=O)c3ccc(OCC(F)F)cc23)CCO1)N1CCN(c2ncc(C(F)(F)F)cn2)CC1 (single isomer, unassigned) [Compound 210]",> 7.00
14,"O=C(CC1CN(c2n[nH]c(=O)c3ccc(OCC(F)F)cc23)CCO1)N1CCN(c2ncc(C(F)(F)F)cn2)CC1 (single isomer, unassigned) [Compound 211]",> 7.00
15,"N#Cc1ccc(N2CCN(C(=O)CC3CN(c4cc(C(F)(F)F)c(=O)[nH]n4)c4cc(C#N)ccc4O3)CC2)nc1 (single isomer, unassigned) [Compound 215]",> 7.00
16,"N#Cc1cnc(N2CCN(C(=O)CC3CN(c4cc(C(F)(F)F)c(=O)[nH]n4)c4cc(C#N)ccc4O3)CC2)nc1 (single isomer, unassigned) [Compound 218]",> 7.00
17,"N#Cc1ccc2c(c1)N(c1cc(C(F)(F)F)c(=O)[nH]n1)CC(CC(=O)N1CCN(c3ncc(C(F)F)cn3)CC1)O2 (single isomer, unassigned) [Compound 219]",> 7.00
18,"O=C(CC1CN(c2n[nH]c(=O)c3ccc(N4CC(F)(F)C4)cc23)CCO1)N1CCN(c2ncc(C(F)(F)F)cn2)CC1 (single isomer, unassigned) [Compound 220]",> 7.00
19,"N#Cc1ccc(N2CCN(C(=O)CC3CN(c4cc(C(F)(F)F)c(=O)[nH]n4)c4ccccc4O3)CC2)nc1 (single isomer, unassigned) [Compound 221]",> 7.00

# Reference: US20240343727A1, “PYRIDAZINONE OR PYRIDINONE COMPOUNDS, PREPARATION METHODS AND USES THEREOF” (InventisBio Co., Ltd., priority 2021, published 2024)
